Assay results reported in PubChem BioAssay (NCI).
Several values for one entry are separate records, joined by “and”; a condition that tells them apart may be missing. Identical values can stand only once.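 1) Cells in 96-well plates. 2) Compound, 48 h, 5 concentrations. 3) Linear interpolation between surrounding doses. 4) Unreached endpoint = highest concentration. At the GI50, growth is halved. TGI: total growth inhibition.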

Key:
Experiment in all cases: NCI tumour cell line growth inhibition, 48 h
OVCAR-3 ovarian = system: OVCAR-3 ovarian
786-0 renal = system: 786-0 renal
SK-MEL-28 melanoma = system: SK-MEL-28 melanoma
HCC-2998 colon = system: HCC-2998 colon
HOP-62 NSCLC = system: HOP-62 NSCLC
T-47D breast = system: T-47D breast
SNB-19 CNS = system: SNB-19 CNS
IGROV1 ovarian = system: IGROV1 ovarian

Compound	GI50 (OVCAR-3 ovarian) [µM]	TGI (OVCAR-3 ovarian) [µM]	GI50 (786-0 renal)	TGI (786-0 renal)	GI50 (SK-MEL-28 melanoma)	TGI (SK-MEL-28 melanoma)	GI50 (HCC-2998 colon)	TGI (HCC-2998 colon)	GI50 (HOP-62 NSCLC)	TGI (HOP-62 NSCLC)	GI50 (T-47D breast)	TGI (T-47D breast)	GI50 (SNB-19 CNS)	TGI (SNB-19 CNS)	GI50 (IGROV1 ovarian)	TGI (IGROV1 ovarian)
O=C(Nc1cccc(Cl)c1)Nc1cc(C(F)(F)F)ccc1Cl	2.61	7.19	2.86 µM	12 µM	4.19 µM	29.6 µM	2.53 µM	5.88 µM	2.72 µM	9.23 µM	3.53 µM	31.3 µM	3.81 µM	19.6 µM		
[N-]=[N+]=NCCCn1c2c(c3ccccc3c1=O)C(=O)c1cc3c(cc1-2)OCO3	> 100	> 100	31.9 µM	> 100 µM					17.6 µM	> 100 µM					47.3 µM	> 100 µM
COc1ccc(N2CCN(c3nc(-c4ccccn4)nc4sc5c(c34)CCCCCC5)CC2)cc1	8.61	> 100	8.45 µM	> 100 µM	> 100 µM	> 100 µM	10.3 µM	> 100 µM	11.4 µM	> 100 µM	6.31 µM	> 100 µM			5.34 µM	> 100 µM
CNC(=O)c1cc(Oc2ccc(NC(=O)Nc3ccc(Cl)c(C(F)(F)F)c3)cc2)ccn1			4.04 µM and 3 µM and 3.42 µM	> 10 µM and 9.4 µM and 13.2 µM	2.42 µM and 2.59 µM and 2.63 µM	8.45 µM and 7.23 µM and 7.5 µM	3.4 µM and 1.58 µM and 2.81 µM	> 10 µM and 3.11 µM and 8.92 µM	2.78 µM and 2.59 µM and 2.01 µM	> 10 µM and 7.97 µM and 4.81 µM	1.82 µM and 2.31 µM and 1.87 µM	> 10 µM and 7.43 µM and 7.85 µM	4.75 µM and 4.38 µM and 3.47 µM	> 10 µM and 17.7 µM and 11.8 µM	3.52 µM and 3.44 µM and 2.6 µM	> 10 µM and 15.3 µM and 9.14 µM
CCCCCCCN(CCCCCCC)C(=N)c1ccc(OC)c2ccccc12	1.6	3.17	1.31 µM	2.95 µM	1.62 µM	3.17 µM			1.3 µM	2.79 µM	1.56 µM	3.33 µM	1.38 µM	2.93 µM	1.1 µM	2.7 µM
COC1C[C@H](O[C@@H]2C[C@H](O[C@@H]3C[C@H](O[C@@H]4C(=O)c5c(cc6cc(O[C@H]7C[C@@H](O[C@H]8C[C@@H](O)[C@H](O)C(C)O8)[C@H](O)C(C)O7)c(C)c(O)c6c5O)C[C@H]4C(OC)C(=O)[C@@H](O)[C@@H](C)O)OC(C)[C@H]3O)OC(C)[C@@H]2O)OC(C)[C@@H]1O (stereo partly specified)	0.0936	0.773	0.116 µM	> 32.5 µM			0.0961 µM	0.615 µM	0.0752 µM	> 32.5 µM	0.0701 µM	7 µM	0.101 µM	> 32.5 µM		
Fc1ccc(Nc2ccnc(N3CCN(c4ccnc5cc(Cl)ccc45)CC3)n2)cc1	2.53	7.38	2.28 µM	6.26 µM	3.27 µM	12.9 µM	3.4 µM	13.7 µM	3.83 µM	65.4 µM			3.99 µM	> 100 µM	3.38 µM	30.9 µM
CCN(CC(O)COc1ccc2c(c1)[n+]([O-])nc(N)[n+]2[O-])C(C)=O (stereo unspecified)		> 100		> 100 µM		> 100 µM				> 100 µM		> 100 µM		> 100 µM		> 100 µM
Nc1[nH]c(=S)[nH]c(=O)c1N=Nc1c(Br)cc(S(N)(=O)=O)cc1Br		> 100		> 100 µM		> 100 µM				> 100 µM		> 100 µM		> 100 µM		> 100 µM
Cc1cc(S(=O)(=O)Nc2nc3ccccc3s2)c(SCc2ccccc2)cc1Cl	8	23.3	16.9 µM	32.1 µM	21.9 µM	52.7 µM	13.8 µM	26.7 µM	31.6 µM	> 100 µM			28.2 µM	> 100 µM	27.4 µM	94.3 µM
COC(=O)C1(N2CCOCC2)CCC([C@@H](c2ccccc2)C(C)[N+](=O)[O-])C1 (stereo partly specified)		71.3		> 100 µM		> 100 µM		> 100 µM		> 100 µM		9.62 µM		> 100 µM		
CN(N=O)N1C(=O)SCC(c2ccccc2)(c2ccccc2)C1=O		> 100		> 100 µM		> 100 µM		> 100 µM		> 100 µM		> 100 µM		> 100 µM		
O=C(Nc1ccc(-c2cn3ccccc3n2)cc1)c1cc(Br)ccc1O		> 100		> 100 µM		> 100 µM				> 100 µM		> 100 µM		> 100 µM		> 100 µM
C=C1[C@H](O)C[C@@H](C(C)C(O)CC=C(C)C)[C@@H](O)[C@@H]2C(C)=CC[C@@H]12 (stereo partly specified)			> 100 µM	> 100 µM	> 100 µM	> 100 µM			> 100 µM	> 100 µM	> 100 µM	> 100 µM	> 100 µM	> 100 µM	> 100 µM	> 100 µM
